Patent publication US20100184699A1, “Peptide Derived From Prostate-Related Protein As Cancer Vaccine Candidate For Prostate Cancer Patient Who Is Positive For Hla-A3 Super-Type Allele Molecule” (priority 2005, published 2010)

Test system: peptide-specific IgG in plasma of prostate cancer patients and healthy donors
Test: Detection of peptide-specific IgG in plasma by ELISA
Type: binding, human
Conditions: for IgG reactive to peptide in plasma: 1:100-diluted plasma
[1] = Prostate cancer patient 12, A11
[2] = Prostate cancer patient 16, A33
[3] = Prostate cancer patient 17, A33
[4] = Prostate cancer patient 19, A33
[5] = Prostate cancer patient 20, A33
[6] = Prostate cancer patient 10, A11

Substance | IgG reactive to peptide in plasma, Total (positive/tested) (Healthy donors) | IgG reactive to peptide in plasma (Prostate cancer patient 6, A31) | IgG reactive to peptide in plasma (Prostate cancer patient 9, A11) | IgG reactive to peptide in plasma [1] | IgG reactive to peptide in plasma [2] | IgG reactive to peptide in plasma [5] | IgG reactive to peptide in plasma, Total (positive/tested) (Prostate cancer patients) | further results
VIARYGKVFR (PSMA 201-210) [PSMA-derived peptide] | 0/9 | + (IgG reactive to a corresponding peptide was judged to be positive when a difference of the optical density (OD) in a 1:100-diluted plasma was more than 100) | + (IgG reactive to a corresponding peptide was judged to be positive when a difference of the optical density (OD) in a 1:100-diluted plasma was more than 100) | + (IgG reactive to a corresponding peptide was judged to be positive when a difference of the optical density (OD) in a 1:100-diluted plasma was more than 100) | + (IgG reactive to a corresponding peptide was judged to be positive when a difference of the optical density (OD) in a 1:100-diluted plasma was more than 100) | + (IgG reactive to a corresponding peptide was judged to be positive when a difference of the optical density (OD) in a 1:100-diluted plasma was more than 100) | 7/20 | IgG reactive to peptide in plasma (Prostate cancer patient 4, A31): + (IgG reactive to a corresponding peptide was judged to be positive when a difference of the optical density (OD) in a 1:100-diluted plasma was more than 100); IgG reactive to peptide in plasma [3]: + (IgG reactive to a corresponding peptide was judged to be positive when a difference of the optical density (OD) in a 1:100-diluted plasma was more than 100); IgG reactive to peptide in plasma [4]: + (IgG reactive to a corresponding peptide was judged to be positive when a difference of the optical density (OD) in a 1:100-diluted plasma was more than 100)
SYKHEQVYIR (PAP 96-105) [PAP-derived peptide] | 1/9 | – | – | – | – | – | 1/20 | IgG reactive to peptide in plasma (Prostate cancer patient 14, A33): + (IgG reactive to a corresponding peptide was judged to be positive when a difference of the optical density (OD) in a 1:100-diluted plasma was more than 100)
LYTKVVHYR (PSA 242-250) [PSA-derived peptide] | 0/9 | – | – | – | – | – | 0/20 | –
PSMA 370-378 (RYVILGGHR; PSMA 370-378) | 0/9 | – | – | – | – | + (IgG reactive to a corresponding peptide was judged to be positive when a difference of the optical density (OD) in a 1:100-diluted plasma was more than 100) | 2/20 | IgG reactive to peptide in plasma (Prostate cancer patient 5, A31): + (IgG reactive to a corresponding peptide was judged to be positive when a difference of the optical density (OD) in a 1:100-diluted plasma was more than 100)
PSMA 247-265 (NLPGGGVQRGNILNLNGAG; UniProt Q04609 247-265, looked up, fragment) | 0/9 | + (IgG reactive to a corresponding peptide was judged to be positive when a difference of the optical density (OD) in a 1:100-diluted plasma was more than 100) | + (IgG reactive to a corresponding peptide was judged to be positive when a difference of the optical density (OD) in a 1:100-diluted plasma was more than 100) | + (IgG reactive to a corresponding peptide was judged to be positive when a difference of the optical density (OD) in a 1:100-diluted plasma was more than 100) | – | + (IgG reactive to a corresponding peptide was judged to be positive when a difference of the optical density (OD) in a 1:100-diluted plasma was more than 100) | 6/20 | IgG reactive to peptide in plasma (Prostate cancer patient 8, A11): + (IgG reactive to a corresponding peptide was judged to be positive when a difference of the optical density (OD) in a 1:100-diluted plasma was more than 100)
FQRLGIASGR (PSMA 525-534) [PSMA-derived peptide] | 0/9 | + (IgG reactive to a corresponding peptide was judged to be positive when a difference of the optical density (OD) in a 1:100-diluted plasma was more than 100) | + (IgG reactive to a corresponding peptide was judged to be positive when a difference of the optical density (OD) in a 1:100-diluted plasma was more than 100) | + (IgG reactive to a corresponding peptide was judged to be positive when a difference of the optical density (OD) in a 1:100-diluted plasma was more than 100) | + (IgG reactive to a corresponding peptide was judged to be positive when a difference of the optical density (OD) in a 1:100-diluted plasma was more than 100) | + (IgG reactive to a corresponding peptide was judged to be positive when a difference of the optical density (OD) in a 1:100-diluted plasma was more than 100) | 11/20 | IgG reactive to peptide in plasma (Prostate cancer patient 2, A31): + (IgG reactive to a corresponding peptide was judged to be positive when a difference of the optical density (OD) in a 1:100-diluted plasma was more than 100); IgG reactive to peptide in plasma (Prostate cancer patient 4, A31): + (IgG reactive to a corresponding peptide was judged to be positive when a difference of the optical density (OD) in a 1:100-diluted plasma was more than 100); IgG reactive to peptide in plasma (Prostate cancer patient 5, A31): + (IgG reactive to a corresponding peptide was judged to be positive when a difference of the optical density (OD) in a 1:100-diluted plasma was more than 100); IgG reactive to peptide in plasma (Prostate cancer patient 8, A11): + (IgG reactive to a corresponding peptide was judged to be positive when a difference of the optical density (OD) in a 1:100-diluted plasma was more than 100); IgG reactive to peptide in plasma [3]: + (IgG reactive to a corresponding peptide was judged to be positive when a difference of the optical density (OD) in a 1:100-diluted plasma was more than 100); IgG reactive to peptide in plasma [4]: + (IgG reactive to a corresponding peptide was judged to be positive when a difference of the optical density (OD) in a 1:100-diluted plasma was more than 100)
VTLVFRHGDR (PAP 38-47) [PAP-derived peptide] | 1/9 | – | + (IgG reactive to a corresponding peptide was judged to be positive when a difference of the optical density (OD) in a 1:100-diluted plasma was more than 100) | – | – | – | 1/20 | IgG reactive to peptide in plasma (Healthy donor 8, A31): + (IgG reactive to a corresponding peptide was judged to be positive when a difference of the optical density (OD) in a 1:100-diluted plasma was more than 100)
LYLPFRNCPR (PAP 154-163) [PAP-derived peptide] | 0/9 | – | + (IgG reactive to a corresponding peptide was judged to be positive when a difference of the optical density (OD) in a 1:100-diluted plasma was more than 100) | – | + (IgG reactive to a corresponding peptide was judged to be positive when a difference of the optical density (OD) in a 1:100-diluted plasma was more than 100) | – | 3/20 | IgG reactive to peptide in plasma [6]: + (IgG reactive to a corresponding peptide was judged to be positive when a difference of the optical density (OD) in a 1:100-diluted plasma was more than 100)
VTKFMLCAGR (PSA 192-201) [PSA-derived peptide] | 0/9 | – | – | – | – | – | 1/20 | IgG reactive to peptide in plasma [6]: + (IgG reactive to a corresponding peptide was judged to be positive when a difference of the optical density (OD) in a 1:100-diluted plasma was more than 100)
HIHSTNEVTR (PSMA 345-354) [PSMA-derived peptide] | 0/9 | + (IgG reactive to a corresponding peptide was judged to be positive when a difference of the optical density (OD) in a 1:100-diluted plasma was more than 100) | + (IgG reactive to a corresponding peptide was judged to be positive when a difference of the optical density (OD) in a 1:100-diluted plasma was more than 100) | + (IgG reactive to a corresponding peptide was judged to be positive when a difference of the optical density (OD) in a 1:100-diluted plasma was more than 100) | + (IgG reactive to a corresponding peptide was judged to be positive when a difference of the optical density (OD) in a 1:100-diluted plasma was more than 100) | + (IgG reactive to a corresponding peptide was judged to be positive when a difference of the optical density (OD) in a 1:100-diluted plasma was more than 100) | 11/20 | IgG reactive to peptide in plasma (Prostate cancer patient 2, A31): + (IgG reactive to a corresponding peptide was judged to be positive when a difference of the optical density (OD) in a 1:100-diluted plasma was more than 100); IgG reactive to peptide in plasma (Prostate cancer patient 4, A31): + (IgG reactive to a corresponding peptide was judged to be positive when a difference of the optical density (OD) in a 1:100-diluted plasma was more than 100); IgG reactive to peptide in plasma (Prostate cancer patient 5, A31): + (IgG reactive to a corresponding peptide was judged to be positive when a difference of the optical density (OD) in a 1:100-diluted plasma was more than 100); IgG reactive to peptide in plasma (Prostate cancer patient 13, A11): + (IgG reactive to a corresponding peptide was judged to be positive when a difference of the optical density (OD) in a 1:100-diluted plasma was more than 100); IgG reactive to peptide in plasma [3]: + (IgG reactive to a corresponding peptide was judged to be positive when a difference of the optical density (OD) in a 1:100-diluted plasma was more than 100); IgG reactive to peptide in plasma [4]: + (IgG reactive to a corresponding peptide was judged to be positive when a difference of the optical density (OD) in a 1:100-diluted plasma was more than 100)
PAP 18-28 (FLFLLFFWLDR; UniProt P15309 18-28, looked up, fragment) | 1/9 | – | – | – | – | – | 0/20 | IgG reactive to peptide in plasma (Healthy donor 12, A31): + (IgG reactive to a corresponding peptide was judged to be positive when a difference of the optical density (OD) in a 1:100-diluted plasma was more than 100)
